According to patent US11964973B2 (priority 2019, dated 2024):
Where two headings read alike, the source gives them in different places.

Tests used:
[1] = test system: naïve human CD8 T cells (IFN-γ); test: Human CD8 T cells IFN-γ assay; assay type: cell-based; conditions: T-cell
Protocol: Assay 8: Human CD8 T Cells IFN-γ Assay
Frozen naïve human CD8 T cells were thawed in AIM-V media, incubated for 2 h in 37° C., and counted. The 384-well tissue culture plate was coated overnight at 4° C. with 20 μL anti-human CD3 at 0.05 μg/mL in PBS, which was removed off the plate before 40,000 cells per 40 microliters CD8 T cells with 0.1 μg/mL soluble anti-human CD28 were added to each well. The compounds were transferred using an Echo liquid handler to the cell plate immediately after the cells were plated. After 20 h incubation at 37° C. incubator, 3 microliters per well supernatants transferred into a new 384-well white assay plate for cytokine measurement.
Interferon-γ (IFN-γ) was quantitated using the AlphLISA kit (Cat #AL217) as described by the manufacturer manual (Perkin Elmer). The counts from each well were converted to IFN-γ concentration (pg/mL).

[2] = test system: OT-1 CD8+ T cells with SIINFEKL-loaded MC38 tumor cells; test: Murine cytotoxic T lymphocyte assay (IFN-γ); assay type: cell-based, mouse; conditions: Mus musculus, MC-38; for IC50: murine cytotoxic T lymphocyte, IFN-γ, read-out: msCTL INFg IC50; for EC50: murine cytotoxic T lymphocyte assay, read-out: msCTL
How it was run: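 OT-1 CD8+ T cells, expanded 5 days with OVA peptide and mIL2, pretreated 1 h with DGK inhibitor, then cocultured overnight at 37 °C with peptide-pulsed MC38 cells (1:10 ratio). IFN-γ in supernatant measured after 24 h by AlphaLisa.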

[3] = target: human DGKζ (Homo sapiens (Human), UniProt Q13574); test: biochemical; assay type: biochemical; conditions: liposome (LIPGLO) assay; read-out: DGKζ LIPGLO IC50
[4] = target: T1, DGKα (Homo sapiens (Human), UniProt P23743); test: biochemical; assay type: biochemical; conditions: liposome (LIPGLO) assay; read-out: DGKα LIPGLO IC50
[5] = test system: naïve human CD8 T cells; test: CellTiter-Glo CD8 T cell proliferation assay; assay type: cell-based; conditions: Homo sapiens, read-out: CD8 GLO Normalized EC50
How it was run: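 Thawed naïve human CD8 T cells (20 k/well) were stimulated with plate-bound anti-CD3 (0.1 μg/mL coating) and 0.5 μg/ml soluble anti-CD28, with compounds added right after plating. After 72 h at 37° C, proliferation was read by CellTiter-Glo luminescence. The signal from stimulated cells was taken as background.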

[6] = test system: Human venous whole blood (IFN-γ); test: Human whole blood IFN-γ assay; assay type: cell-based
Protocol: Assay 10: Human Whole Blood IFN-γ Assay
Human venous whole blood (22.5 μL per well), obtained from healthy donors, was pre-treated with compounds for one hour at 37° C. in a humidified 95% air/5% CO2 incubator. The blood was stimulated with 2.5 μL anti-human CD3 and anti-CD28 mAb at a final concentration of 1 μg/mL each for 24 hours at 37° C. IFN-γ in the supernatants was measured using AlphLISA kit (Cat #AL217).

[7] = target: T1, DGKα; test: DGKα ADPGLO assay; assay type: biochemical
[8] = test system: human venous whole blood, CD8 positive population (pERK); test: DGK human whole blood pERK assay; assay type: cell-based; conditions: human whole blood, CD8 positive population, anti-CD3 stimulation, top concentration 20 μM, read-out: DGK HWB (human whole blood pERK)
How it was run: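 Heparinized whole blood from healthy donors preincubated with compound 1 hour at 37° C. Stimulation used anti-CD3 at 1 μg/mL final plus cross-linking goat anti-mouse IgG for 15 minutes. Flow cytometry scored percentage pERK-positive cells among CD8-positive cells.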

[9] = target: Human DGKα(9-727) (Homo sapiens (Human), UniProt P23743); test: biochemical; conditions: liposome (LIPGLO) assay; Table A; read-out: DGKα LIPGLO IC50
[10] = target: full length human DGKζ (Homo sapiens (Human), UniProt Q13574); test: In vitro DGK inhibition assay, Method B (DGKζ LIPGLO, extruded liposomes); assay type: biochemical; conditions: liposome (LIPGLO) assay; read-out: DGKζ LIPGLO IC50
[11] = read-out: HuCD8 INFG Normalized EC50
[12] = Homo sapiens, 24 h, human whole blood, anti-CD3 plus anti-CD28, 24 hours, read-out: INFg Whole Blood Normalized Agonist EC50
[13] = human whole blood, anti-CD3 plus anti-CD28, 24 hours, read-out: INFg Whole Blood Normalized Agonist EC50
[14] = Homo sapiens, human whole blood IFN-γ, read-out: INFg Whole Blood

human DGKζ, sequence (Q13574 whole entry, looked up): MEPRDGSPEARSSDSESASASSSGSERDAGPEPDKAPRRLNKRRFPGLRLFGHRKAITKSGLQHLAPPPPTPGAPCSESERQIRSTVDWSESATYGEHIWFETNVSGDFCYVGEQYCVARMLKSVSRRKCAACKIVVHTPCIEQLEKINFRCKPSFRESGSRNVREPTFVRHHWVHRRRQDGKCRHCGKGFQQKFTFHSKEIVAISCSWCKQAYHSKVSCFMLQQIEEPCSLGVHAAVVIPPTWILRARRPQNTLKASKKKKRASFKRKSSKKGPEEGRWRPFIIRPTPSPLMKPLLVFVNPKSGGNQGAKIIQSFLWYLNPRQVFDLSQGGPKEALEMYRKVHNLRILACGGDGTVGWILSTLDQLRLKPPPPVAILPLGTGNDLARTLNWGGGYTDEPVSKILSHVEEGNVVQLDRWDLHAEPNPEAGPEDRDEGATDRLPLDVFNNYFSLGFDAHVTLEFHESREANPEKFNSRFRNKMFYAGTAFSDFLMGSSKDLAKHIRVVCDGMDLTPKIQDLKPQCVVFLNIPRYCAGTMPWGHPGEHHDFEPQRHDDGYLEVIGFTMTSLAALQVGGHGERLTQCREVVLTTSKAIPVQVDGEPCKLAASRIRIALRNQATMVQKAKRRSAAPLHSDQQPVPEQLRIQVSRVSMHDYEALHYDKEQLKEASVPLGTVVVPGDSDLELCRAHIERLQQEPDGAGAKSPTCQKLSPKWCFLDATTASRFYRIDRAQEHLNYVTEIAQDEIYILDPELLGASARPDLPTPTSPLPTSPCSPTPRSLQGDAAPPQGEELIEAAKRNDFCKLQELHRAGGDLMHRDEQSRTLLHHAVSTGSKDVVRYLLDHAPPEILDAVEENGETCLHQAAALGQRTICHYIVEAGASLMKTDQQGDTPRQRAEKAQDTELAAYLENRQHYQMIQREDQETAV
full length human DGKζ, sequence (Q13574 whole entry, looked up): as above
T1 sequence (P23743 whole entry, looked up): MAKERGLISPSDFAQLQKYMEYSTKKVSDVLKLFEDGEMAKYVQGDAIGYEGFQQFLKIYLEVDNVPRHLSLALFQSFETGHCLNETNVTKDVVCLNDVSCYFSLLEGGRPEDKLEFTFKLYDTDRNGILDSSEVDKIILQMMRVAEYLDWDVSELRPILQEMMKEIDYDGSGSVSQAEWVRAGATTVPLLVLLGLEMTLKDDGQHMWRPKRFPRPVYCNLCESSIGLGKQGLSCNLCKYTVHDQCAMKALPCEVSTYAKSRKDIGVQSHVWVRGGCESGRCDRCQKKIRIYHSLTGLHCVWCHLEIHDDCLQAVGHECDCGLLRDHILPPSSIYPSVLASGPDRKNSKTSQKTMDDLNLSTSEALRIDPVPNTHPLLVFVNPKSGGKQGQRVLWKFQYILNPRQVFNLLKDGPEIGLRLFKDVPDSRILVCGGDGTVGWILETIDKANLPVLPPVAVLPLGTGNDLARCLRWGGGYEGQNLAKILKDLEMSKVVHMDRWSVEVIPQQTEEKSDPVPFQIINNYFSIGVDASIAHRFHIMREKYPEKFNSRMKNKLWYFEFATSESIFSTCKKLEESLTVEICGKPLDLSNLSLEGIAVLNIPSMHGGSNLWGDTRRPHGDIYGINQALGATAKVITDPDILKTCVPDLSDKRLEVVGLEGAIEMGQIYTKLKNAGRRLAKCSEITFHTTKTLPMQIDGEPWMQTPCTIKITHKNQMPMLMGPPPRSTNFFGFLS
Human DGKα(9-727), sequence (P23743 whole entry, looked up): as above

Question: Which EC50 [1, 11] does the source give for Cc1ccc(OC2CCN(c3c(C#N)c(=O)n(C)c4ccc(Cl)nc34)CC2)cc1 [Example 21, 6-chloro-1-methyl-2-oxo-4-(4-(p-tolyloxy)piperidin-1-yl)-1,2-dihydro-1,5-naphthyridine-3-carbonitrile] here?
Answer: 160 nM

Question: And the IC50 [2]?
Answer: 1700 nM

Question: And the IC50 [3]?
Answer: 7800 nM

Question: What about the IC50 [4] of the same molecule?
Answer: 770 nM

Question: What about the EC50 [5] of the same molecule?
Answer: 92 nM

Question: With Cn1c(=O)c(C#N)c(N2CCC(Oc3ccc(C(C)(C)C)cc3)CC2)c2nc(Cl)ccc21 [Example 15, 4-(4-(4-(tert-butyl)phenoxy)piperidin-1-yl)-6-chloro-1-methyl-2-oxo-1,2-dihydro-1,5-naphthyridine-3-carbonitrile] as the molecule, how does the EC50 [6, 12] read?
Answer: 7600 nM

Question: And the EC50 [1, 11]?
Answer: 870 nM

Question: What about the IC50 [2] of the same molecule?
Answer: 290 nM

Question: What about the IC50 [3] of the same molecule?
Answer: 7400 nM

Question: And the IC50 [4]?
Answer: 510 nM

Question: And the EC50 [5]?
Answer: 320 nM

Question: How did the EC50 [6, 13] turn out when C[C@@H]1CN(c2cc(=O)n(C)c3ccc(C#N)nc23)CC[C@H]1Oc1cccc(C2CC2)c1 (single isomer, unassigned) [Example 92] was run?
Answer: 910 nM

Question: And the IC50 [7]?
Answer: 0.51 nM

Question: And the IC50 [3]?
Answer: 16000 nM

Question: What about the IC50 [4] of the same molecule?
Answer: 28 nM

Question: With Cn1c(=O)cc(N2CCC(Oc3ccc(OC(F)(F)F)cc3)CC2)c2nc(C#N)ccc21 [Example 52, 5-methyl-6-oxo-8-(4-(4-(trifluoromethoxy)phenoxy)piperidin-1-yl)-5,6-dihydro-1,5-naphthyridine-2-carbonitrile] as the molecule, how does the EC50 [6, 12] read?
Answer: 2700 nM

Question: What about the EC50 [1, 11] of the same molecule?
Answer: 1000 nM

Question: And the IC50 [2]?
Answer: 150 nM

Question: And the IC50 [3]?
Answer: 3800 nM

Question: What about the IC50 [4] of the same molecule?
Answer: 800 nM

Question: CC[C@@H]1CN(c2cc(=O)n(C)c3ccc(C#N)nc23)CC[C@H]1Oc1cccc(C(C)C)c1 (single isomer, unassigned) [Example 138] was tested. Which EC50 ([6]; read-out: INFg Whole Blood Normalized Agonist EC50, human whole blood, anti-CD3 plus anti-CD28, 24 hours) did it give?
Answer: 340 nM

Question: What about the IC50 [7] of the same molecule?
Answer: 5.2 nM

Question: What about the IC50 [3] of the same molecule?
Answer: 800 nM

Question: What about the IC50 [4] of the same molecule?
Answer: 24 nM

Question: Which results are given for C[C@@H]1CN(c2cc(=O)n(C)c3ccc(C#N)nc23)CC[C@H]1Oc1ccc(OC(C)(C)C)cc1 [Example 85, 8-((3R,4R)-4-(4-(tert-butoxy)phenoxy)-3-methylpiperidin-1-yl)-5-methyl-6-oxo-5,6-dihydro-1,5-naphthyridine-2-carbonitrile]?
Answer: EC50 [6, 13]: 2200 nM; EC50 [1, 11]: 610 nM; IC50 [4]: 80 nM

Question: What does the source list for CCC(C)(C)c1ccc(O[C@@H]2CCN(c3cc(=O)n(C)c4ccc(C#N)nc34)C[C@H]2C)cc1 (single isomer, unassigned) [Example 83]?
Answer: EC50 [6, 13]: 360 nM; EC50 [1, 11]: 2.5 nM; IC50 [3]: 5800 nM; IC50 [4]: 280 nM

Question: Which results are given for COc1cc(-c2c(N3CCC(Oc4ccc(OC(F)(F)F)cc4)CC3)c3nc(C#N)ccc3n(C)c2=O)ccn1 [Example 241, 7-(2-methoxypyridin-4-yl)-5-methyl-6-oxo-8-(4-(4-(trifluoromethoxy)phenoxy)piperidin-1-yl)-5,6-dihydro-1,5-naphthyridine-2-carbonitrile]?
Answer: EC50 [6, 14]: 10000 nM; EC50 ([1]; read-out: HuCD8 INFG): 1300 nM; EC50 [2]: 570 nM

Question: How did the EC50 [6, 12] turn out when Cn1c(=O)c(C#N)c(N2CCC(Oc3ccccc3Cl)CC2)c2nc(Cl)ccc21 [Example 18, 6-chloro-4-(4-(2-chlorophenoxy)piperidin-1-yl)-1-methyl-2-oxo-1,2-dihydro-1,5-naphthyridine-3-carbonitrile] was run?
Answer: 10000 nM

Question: What about the EC50 [1, 11] of the same molecule?
Answer: 190 nM

Question: And the IC50 [2]?
Answer: 1500 nM

Question: And the IC50 [3]?
Answer: 13000 nM

Question: What about the IC50 [4] of the same molecule?
Answer: 2600 nM

Question: What about the EC50 [5] of the same molecule?
Answer: 79 nM

Question: For CN(C)CCO[C@@H]1CN(c2cc(=O)n(C)c3ccc(C#N)nc23)CC[C@H]1Oc1cccc(C(F)(F)F)c1 [Example 386, 8-((3R,4R)-3-(2-(dimethylamino)ethoxy)-4-(3-(trifluoromethyl)phenoxy)piperidin-1-yl)-5-methyl-6-oxo-5,6-dihydro-1,5-naphthyridine-2-carbonitrile], which EC50 ([8]; Homo sapiens, CD8 positive) is on record?
Answer: 20000 nM

Question: And the IC50 [9]?
Answer: 130000 nM

Question: And the IC50 [10]?
Answer: 42000 nM

Question: Which EC50 [6, 14] does the source give for COc1ccc(-c2c(N3CCC(Oc4ccc(OC(F)(F)F)cc4)CC3)c3nc(C#N)ccc3n(C)c2=O)cn1 [Example 240, 7-(6-methoxypyridin-3-yl)-5-methyl-6-oxo-8-(4-(4-(trifluoromethoxy)phenoxy)piperidin-1-yl)-5,6-dihydro-1,5-naphthyridine-2-carbonitrile] here?
Answer: 5300 nM

Question: What about the EC50 ([1]; read-out: HuCD8 INFG) of the same molecule?
Answer: 1000 nM

Question: And the EC50 [2]?
Answer: 580 nM

Question: Which results are given for CCO[C@H]1CN(c2cc(=O)n(C)c3ccc(C#N)nc23)CC[C@@H]1Oc1cnc(OC(C)C)cn1 [Example 378, 8-((3S,4S)-3-ethoxy-4-((5-isopropoxypyrazin-2-yl)oxy)piperidin-1-yl)-5-methyl-6-oxo-5,6-dihydro-1,5-naphthyridine-2-carbonitrile]?
Answer: EC50 [8]: 10000 nM; IC50 [9]: 7700 nM; IC50 [10]: 5200 nM

Question: CC(C)O[C@@H]1CN(c2cc(=O)n(C)c3ccc(C#N)nc23)CC[C@H]1Oc1cccc(C(F)(F)F)c1 (relative stereo) [Example 396, trans-8-(3-Isopropoxy-4-(3-(trifluoromethyl)phenoxy)piperidin-1-yl)-5-methyl-6-oxo-5,6-dihydro-1,5-naphthyridine-2-carbonitrile] was tested. Which EC50 [8] did it give?
Answer: 14000 nM

Question: And the IC50 [9]?
Answer: 38000 nM

Question: And the IC50 [10]?
Answer: 3600 nM

Question: Cn1c(=O)c(Cl)c(N2CCC(Oc3ccc(OC(F)(F)F)cc3)CC2)c2nc(C#N)ccc21 [Example 238, 7-chloro-5-methyl-6-oxo-8-(4-(4-(trifluoromethoxy)phenoxy)piperidin-1-yl)-5,6-dihydro-1,5-naphthyridine-2-carbonitrile] was tested. Which EC50 ([1]; read-out: HuCD8 INFG) did it give?
Answer: 160 nM

Question: For Cn1c(=O)c(F)c(N2CCC(Oc3ccc(OC(F)(F)F)cc3)CC2)c2nc(C#N)ccc21 [Example 237, 7-fluoro-5-methyl-6-oxo-8-(4-(4-(trifluoromethoxy)phenoxy)piperidin-1-yl)-5,6-dihydro-1,5-naphthyridine-2-carbonitrile], which EC50 [6, 14] is on record?
Answer: 3300 nM

Question: And the EC50 ([1]; read-out: HuCD8 INFG)?
Answer: 340 nM

Question: What about the EC50 [2] of the same molecule?
Answer: 200 nM

Question: CC(C)O[C@@H]1CN(c2cc(=O)n(C)c3ccc(C#N)nc23)CC[C@H]1Oc1cccc(C(F)(F)F)c1 (relative stereo) [Example 395, trans-8-(3-Isopropoxy-4-(3-(trifluoromethyl)phenoxy)piperidin-1-yl)-5-methyl-6-oxo-5,6-dihydro-1,5-naphthyridine-2-carbonitrile] was tested. Which EC50 [8] did it give?
Answer: 910 nM

Question: What about the IC50 [9] of the same molecule?
Answer: 320 nM

Question: What about the IC50 [10] of the same molecule?
Answer: 69 nM

Question: With Cn1c(=O)c(Br)c(N2CCC(Oc3ccc(OC(F)(F)F)cc3)CC2)c2nc(C#N)ccc21 [Example 239, 7-bromo-5-methyl-6-oxo-8-(4-(4-(trifluoromethoxy)phenoxy)piperidin-1-yl)-5,6-dihydro-1,5-naphthyridine-2-carbonitrile] as the molecule, how does the EC50 ([1]; read-out: HuCD8 INFG) read?
Answer: 820 nM

Question: For CCO[C@H]1CN(c2cc(=O)n(C)c3ccc(C#N)nc23)CC[C@@H]1OCc1cccc(C(F)(F)F)c1 [Example 381, 8-((3S,4S)-3-ethoxy-4-((3-(trifluoromethyl)benzyl)oxy)piperidin-1-yl)-5-methyl-6-oxo-5,6-dihydro-1,5-naphthyridine-2-carbonitrile], which EC50 ([8]; Homo sapiens, CD8 positive) is on record?
Answer: 240 nM

Question: And the IC50 [9]?
Answer: 310 nM

Question: What about the IC50 [10] of the same molecule?
Answer: 7400 nM
